Measured values taken from PubChem BioAssay (NCI).
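A five-concentration, 48-hour dose response in 96-well plates underlies each endpoint, interpolated linearly between surrounding concentrations. GI50 = concentration required for 50% inhibition of growth. At the TGI there is no net growth.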

How the values were obtained:
Assay in all cases: NCI anticancer screen, dose series, 48 h
OVCAR-8 ovarian = test system: OVCAR-8 ovarian
CCRF-CEM leukemia = test system: CCRF-CEM leukemia
LOX IMVI melanoma = test system: LOX IMVI melanoma
TK-10 renal = test system: TK-10 renal
UACC-62 melanoma = test system: UACC-62 melanoma
NCI-H23 lung = test system: NCI-H23 lung
786-0 renal = test system: 786-0 renal
NCI-H226 lung = test system: NCI-H226 lung
EKVX NSCLC = test system: EKVX NSCLC
BT-549 breast = test system: BT-549 breast

SMILES | TGI (OVCAR-8 ovarian) [µM] | TGI (CCRF-CEM leukemia) [µM] | TGI (LOX IMVI melanoma) [µM] | TGI (TK-10 renal) [µM] | TGI (UACC-62 melanoma) [µM] | TGI (NCI-H23 lung) [µM] | TGI (786-0 renal) [µM] | TGI (NCI-H226 lung) [µM] | TGI (EKVX NSCLC) [µM] | TGI (BT-549 breast) [µM] | GI50 (OVCAR-8 ovarian) [µM] | GI50 (LOX IMVI melanoma) [µM] | GI50 (UACC-62 melanoma) [µM] | GI50 (BT-549 breast) [µM] | GI50 (NCI-H23 lung) [µM] | GI50 (786-0 renal) [µM] | GI50 (CCRF-CEM leukemia) [µM] | GI50 (TK-10 renal) [µM] | GI50 (NCI-H226 lung) [µM] | GI50 (EKVX NSCLC) [µM]
O=C(c1ccc([N+](=O)[O-])cc1[N+](=O)[O-])N(/N=C/C=C/c1ccccc1)c1nnc(-c2ccccc2)c(-c2ccccc2)n1 | 67.8 | 84.2 | > 100 | 78 | 70.4 | 93.2 | 56 | > 100 | > 100 |  |  |  |  |  |  |  |  |  |  | 
CCOC(=O)Cc1csc(Nc2ccccc2[N+](=O)[O-])n1 | > 100 | > 100 | > 70.2 | > 100 | > 100 | > 100 | > 100 | > 100 | > 100 |  |  |  |  |  |  |  |  |  |  | 
Cc1nc2c(N)ncnc2o1 | > 100 | > 100 | > 100 | > 100 | > 100 | > 100 | > 100 | > 100 | > 100 |  |  |  |  |  |  |  |  |  |  | 
O=c1[nH]c(=O)n(C2CC(O)C(CO)O2)cc1OS(=O)(=O)C(F)(F)F (stereo unspecified) | > 100 | > 100 | > 100 | > 100 | > 100 | > 100 | > 100 | > 100 | > 100 |  |  |  |  |  |  |  |  |  |  | 
CC1=C(C(=O)Nc2ccccc2)C(c2ccc(Cl)c(Cl)c2)C(C(=O)Nc2ccccc2)=C(C)N1 | 27.9 | 71.4 | 28.5 | 75.2 | 22.6 | 27 | 25.7 |  | 30.9 |  |  |  |  |  |  |  |  |  |  | 
CSC[C@H](NC(=O)COc1cccc2cnccc12)C(=O)NC(Cc1ccccc1)C(O)C(=O)N1CSC[C@H]1C(=O)NC(C)(C)C (stereo partly specified) | > 100 | > 100 | > 100 | > 100 | > 100 | > 100 | > 100 | > 100 |  | > 100 |  |  |  |  |  |  |  |  |  | 
COC(=O)c1c2c(c(C)[n+]([O-])c1C)C(=O)C(NCc1ccc(Br)cc1)=CC2=O | 7.19 |  | 6.7 |  | 2.69 | 4.68 | 11.2 |  |  | 3.52 | 1.83 | 1.67 | 1.17 | 1.73 | 1.57 | 3.13 |  |  |  | 
Nc1c(C(=O)Nc2ccccn2)sc2nc3c(cc12)C(=O)CCC3 | > 100 | > 100 | > 100 | > 100 | > 100 | > 100 | 44.6 | > 100 |  | > 100 | 6.52 | 4.18 | 0.621 | 0.332 | 3.29 | 1.33 | 0.79 | 22.3 | 3.62 | 
C=C(C)C(C1C=C(CCC(C=O)=C(C)C)C(=O)O1)C1(OC)C=C(C)C(=O)O1 (stereo unspecified) | > 100 | > 100 | > 100 | > 100 | > 100 | > 100 | > 100 | > 100 | > 100 |  | > 100 | 39.6 | 95.4 |  | 91.3 | > 100 | 25.3 | > 100 | > 100 | > 100
CNCCCNc1ccnc2cc(Cl)ccc12 | > 100 |  | 36.6 | 54.4 | 45.7 | > 100 | > 100 | 87.5 |  | > 100 | 28.3 | 16.8 | 20.1 | 28.3 | 30.8 | 32.9 |  | 18 | 25.9 | 
CCN(CCNS(C)(=O)=O)c1ccc(N)c(C)c1 | 15.2 | 7.29 | 12.4 | 7.73 |  |  | 21.9 | 32.2 |  | 22.2 | 3.94 | 3.48 |  | 10.1 |  | 9.76 | 2.29 | 3.44 | 15.2 | 
C=C(C)[C@@H]1CC[C@]2(CN)CC[C@]3(C)[C@H](CC[C@@H]4[C@@]5(C)CCCNC(C)(C)[C@@H]5CC[C@]43C)[C@@H]12 |  | 4.92 |  | 3.52 | 3.42 | 3.3 | 3.57 | 3.8 | 3.39 |  |  |  | 1.87 |  | 1.7 | 1.74 | 2.27 | 1.86 | 1.88 | 1.77
CCN(Cc1c(F)cccc1OC)c1ccc(CO)c(Cl)c1 | 50.2 | > 79.1 | 33.1 | 0.0536 | 0.953 | 39.2 | 38.9 | 0.169 |  | 36.9 | 12 | 16.9 | 0.0961 | 17.6 | 12.5 | 16.7 | 20.9 |  | 0.0328 | 
Cc1cc(C)nc(NS(=O)(=O)c2ccc(Nc3c4ccccc4nc4c(C(=O)N5CCN(CCO)CC5)cccc34)cc2)n1 | > 100 | > 100 | > 100 | > 100 | > 100 | > 100 | > 100 | > 100 | > 100 |  |  |  |  |  |  |  |  |  |  | 
CCOC(=O)C(Br)=C1OC(=O)c2ccccc2-c2ccccc21 (mixture of isomers) | 75.8 | 40.2 | 35.9 | 49 | 29.5 | 48 | 32.7 | 60.4 | > 100 |  |  |  |  |  |  |  |  |  |  | 
COC(=O)c1c(C)cc(OC)c(C/C=C(\C)CCCc2coc(C=C(C)C)c2)c1OC | > 100 | > 100 | > 100 | > 100 | > 100 | > 100 | > 100 |  | > 100 | > 100 |  |  |  |  |  |  |  |  |  | 
CCOc1ccc(OCC(=O)O)c2c1CCCC2=O | > 100 |  | > 100 | > 100 | > 100 | > 100 | > 100 | > 100 | > 100 |  |  |  |  |  |  |  |  |  |  | 
O=C1C/C(Br)=C\c2ccccc2-c2ccccc21 | 5.41 | 10.4 | 2.43 | 14.5 | 5.09 | 9.56 | 2.91 | 8.22 | 21.8 |  |  |  |  |  |  |  |  |  |  | 
